Laboratory results reported in BindingDB's records for doi:10.1021/jm301674z (Takeda Pharmaceutical, 2013).

Target: Baculoviral IAP repeat-containing protein 2 (Homo sapiens) (UniProt Q13490)
Assay: Inhibition of human recombinant His-tagged cIAP1 protein BIR3 domain (250 to 350 amino acid residues) using biotinylated-Smac as substrate after overnight incubation by HTRF assay

Baculoviral IAP repeat-containing protein 2 (Homo sapiens), sequence (Q13490 whole entry, looked up, the tested form may be a part): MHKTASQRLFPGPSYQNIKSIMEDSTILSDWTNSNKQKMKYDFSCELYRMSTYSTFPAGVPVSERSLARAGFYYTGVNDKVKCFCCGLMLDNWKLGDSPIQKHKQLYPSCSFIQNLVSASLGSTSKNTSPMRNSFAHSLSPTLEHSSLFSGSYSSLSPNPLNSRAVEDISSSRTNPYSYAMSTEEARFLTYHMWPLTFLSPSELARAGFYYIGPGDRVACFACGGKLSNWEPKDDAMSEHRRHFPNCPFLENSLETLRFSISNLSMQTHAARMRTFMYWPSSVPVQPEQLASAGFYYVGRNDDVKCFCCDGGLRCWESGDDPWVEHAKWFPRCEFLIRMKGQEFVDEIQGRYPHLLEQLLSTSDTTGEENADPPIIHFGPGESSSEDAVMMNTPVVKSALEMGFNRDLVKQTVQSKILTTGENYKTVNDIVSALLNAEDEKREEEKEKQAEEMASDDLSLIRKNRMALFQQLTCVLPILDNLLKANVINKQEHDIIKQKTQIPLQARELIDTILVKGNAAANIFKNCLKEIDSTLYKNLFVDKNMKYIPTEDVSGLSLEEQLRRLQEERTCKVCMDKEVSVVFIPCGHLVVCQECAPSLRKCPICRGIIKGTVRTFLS

SMILES	IC50 [nM]
CN[C@@H](C)C(=O)N[C@H](C(=O)N1C[C@@H]2CCCN2C[C@H]1C(=O)N[C@@H]1CCOc2ccccc21)C1CCC(F)(F)CC1	2.5
CN[C@@H](C)C(=O)N[C@H](C(=O)N1C[C@H]2CCCN2C[C@H]1C(=O)N[C@@H]1CCOc2ccccc21)c1ccccc1	2.6
CN[C@@H](C)C(=O)N[C@H](C(=O)N1C[C@H]2CCCN2C[C@H]1C(=O)N[C@@H]1CCOc2ccccc21)C1CCOCC1	3.4
CN[C@@H](C)C(=O)N[C@H](C(=O)N1C[C@H]2CC(F)(F)CN2C[C@H]1C(=O)N[C@@H]1CCOc2ccccc21)C1CCC(F)(F)CC1	1.7
CN[C@@H](C)C(=O)N[C@H](C(=O)N1C[C@H]2C[C@@H](O)CN2C[C@H]1C(=O)N[C@@H]1CCOc2ccccc21)C1CCC(F)(F)CC1	4.9
CN[C@@H](C)C(=O)N[C@H](C(=O)N1C[C@H]2CCCN2C[C@H]1C(=O)N[C@@H]1CCCc2ccccc21)C1CCCCC1	2.7
CCO[C@@H]1C[C@@H]2CN(C(=O)[C@@H](NC(=O)[C@H](C)NC)C3CCC(F)(F)CC3)[C@H](C(=O)N[C@@H]3CCOc4ccccc43)CN2C1	1.3
CN[C@@H](C)C(=O)N[C@H](C(=O)N1C[C@H]2CCCN2C[C@H]1C(=O)N[C@H]1CCCc2ccccc21)C1CCCCC1	1300
CN[C@@H](C)C(=O)N[C@H](C(=O)N1C[C@H]2CCCN2C[C@H]1C(=O)N[C@H](C)c1ccccc1)C1CCCCC1	14
CN[C@@H](C)C(=O)N[C@H](C(=O)N1C[C@H]2CCCN2C[C@H]1C(=O)N[C@@H]1CCOc2ccccc21)C1CCC(F)(F)CC1	3.2
CN[C@@H](C)C(=O)N[C@H](C(=O)N1C[C@H]2CCCN2C[C@H]1C(=O)N[C@@H]1CCC(F)(F)c2ccccc21)C1CCCCC1	4
CN[C@@H](C)C(=O)N[C@H](C(=O)N1C[C@H]2CCCN2C[C@H]1C(=O)N[C@@H]1CCC(=O)c2ccccc21)C1CCCCC1	7.6
